# Measurements as given in ChEMBL document CHEMBL5356964, “Design, synthesis and anti-rheumatoid arthritis activity of target TLR4 inhibitors” (Bioorg Med Chem, 2024).
# Calls of active or inactive are those of the source. No cut-off for these calls is given here.
# Tests used:
# RAW264.7 [1] = test: Antiproliferative activity against LPS-induced- mouse RAW264.7 cells assessed as inhibition of cell growth incubated for 24 hrs by CCK-8 assay; format: functional, cell-based; conditions: RAW264.7, 24 h
# [2] = Antiproliferative activity against rat Synovial cell assessed as inhibition of cell growth incubated for 48 hrs by CCK-8 assay; format: functional, cell-based
# RAW264.7 [3] = test: Antiarthritic activity against LPS-induced mouse RAW264.7 cells assessed as reduction in TNF-alpha level at 1 uM incubated for 24 hrs (Rvb 653.3 +/- 70.1 pg/L); format: functional
# Toll-like receptor 4 [4] = molecular target: T1, Toll-like receptor 4 (Homo sapiens, UniProt O00206); test: Inhibition of TLR4 (unknown origin) using TMB as substrate incubated for 90 mins
# RAW264.7 [5] = test: Antiarthritic activity against LPS-induced mouse RAW264.7 cells assessed as reduction in IL-6 level at 1 uM incubated for 24 hrs (Rvb 231.1 +/- 24.2 pg/L); format: functional
# RAW264.7 [6] = test: Antiarthritic activity against LPS-induced mouse RAW264.7 cells assessed as reduction in IL-1beta level at 1 uM incubated for 24 hrs (Rvb 665.1 +/- 82.1 pg/L); format: functional
# RAW264.7 [7] = test: Antiproliferative activity against LPS-induced- mouse RAW264.7 cells assessed as cell survival at 1 uM pretreated with compound for 24 hrs followed by LPS induction and measured after 24 hrs; format: functional, cell-based; conditions: time 48.0 hrs
# Mus musculus [8] = test: Antiarthritic activity against collagen-induced rheumatoid arthritis mouse model assessed as reduction in clinical score at 100 mg/kg administered for 15 days; format: functional, organism-based; conditions: time 15.0 day
# RAW264.7 [9] = test: Antiarthritic activity against LPS-induced mouse RAW264.7 cells assessed as downregulation of JAK2 mRNA expression at 1 uM preincubated with compound for 24 hrs followed by LPS-induction and measured after 24 hrs by RT-PCR analysis; format: functional, cell-based; conditions: time 48.0 hrs
# RAW264.7 [10] = test: Antiarthritic activity against LPS-induced mouse RAW264.7 cells assessed as downregulation of TNF-alpha expression at 1 uM preincubated with compound for 24 hrs followed by LPS-induction and measured after 24 hrs by immunofluorescence analysis; format: functional, cell-based; conditions: time 48.0 hrs
# RAW264.7 [11] = test: Antiarthritic activity against LPS-induced mouse RAW264.7 cells assessed as downregulation of JAK2 expression at 1 uM preincubated with compound for 24 hrs followed by LPS-induction and measured after 24 hrs by Western blot analysis; format: functional, cell-based; conditions: time 48.0 hrs
# RAW264.7 [12] = test: Antiarthritic activity against LPS-induced mouse RAW264.7 cells assessed as downregulation of TNF-alpha expression at 1 uM preincubated with compound for 24 hrs followed by LPS-induction and measured after 24 hrs by Western blot analysis; format: functional, cell-based; conditions: time 48.0 hrs
# RAW264.7 [13] = test: Antiarthritic activity against LPS-induced mouse RAW264.7 cells assessed as downregulation of STAT3 mRNA expression at 1 uM preincubated with compound for 24 hrs followed by LPS-induction and measured after 24 hrs by RT-PCR analysis; format: functional, cell-based; conditions: time 48.0 hrs
# RAW264.7 [14] = test: Antiarthritic activity against LPS-induced mouse RAW264.7 cells assessed as reduction in IL-6 level at 1 uM pretreated with compound for 24 hrs followed by LPS induction and measured after 24 hrs; format: functional, cell-based; conditions: time 48.0 hrs
# RAW264.7 [15] = test: Antiarthritic activity against LPS-induced mouse RAW264.7 cells assessed as downregulation of NF-kappaB expression at 1 uM preincubated with compound for 24 hrs followed by LPS-induction and measured after 24 hrs by immunofluorescence analysis; format: functional, cell-based; conditions: time 48.0 hrs
# RAW264.7 [16] = test: Antiarthritic activity against LPS-induced mouse RAW264.7 cells assessed as downregulation of TLR4 expression at 1 uM preincubated with compound for 24 hrs followed by LPS-induction and measured after 24 hrs by Western blot analysis; format: functional, cell-based; conditions: time 48.0 hrs
# RAW264.7 [17] = test: Antiarthritic activity against LPS-induced mouse RAW264.7 cells assessed as downregulation of TLR4 mRNA expression at 1 uM preincubated with compound for 24 hrs followed by LPS-induction and measured after 24 hrs by RT-PCR analysis; format: functional, cell-based; conditions: time 48.0 hrs
# RAW264.7 [18] = test: Antiarthritic activity against LPS-induced mouse RAW264.7 cells assessed as downregulation of STAT3 expression at 1 uM preincubated with compound for 24 hrs followed by LPS-induction and measured after 24 hrs by immunofluorescence analysis; format: functional, cell-based; conditions: time 48.0 hrs
# RAW264.7 [19] = test: Antiarthritic activity against LPS-induced mouse RAW264.7 cells assessed as reduction in IL-1beta level at 1 uM pretreated with compound for 24 hrs followed by LPS induction and measured after 24 hrs; format: functional, cell-based; conditions: time 48.0 hrs
# RAW264.7 [20] = test: Antiarthritic activity against LPS-induced mouse RAW264.7 cells assessed as downregulation of TLR4 expression at 1 uM preincubated with compound for 24 hrs followed by LPS-induction and measured after 24 hrs by immunofluorescence analysis; format: functional, cell-based; conditions: time 48.0 hrs
# Toll-like receptor 4 [21] = molecular target: T1, Toll-like receptor 4; test: Potency index, ratio of methotrexate IC50 to test compound IC50 for inhibition of TLR4 (unknown origin) using TMB as substrate incubated for 90 mins
# Mus musculus [22] = test: Antiarthritic activity against collagen-induced rheumatoid arthritis mouse model assessed as reduction in IL-6 level at 100 mg/kg administered for 15 days by ELISA analysis; format: functional, organism-based; conditions: time 15.0 day
# Mus musculus [23] = test: Antiarthritic activity against collagen-induced rheumatoid arthritis mouse model assessed as reduction in IL-1beta level at 100 mg/kg administered for 15 days by ELISA analysis; format: functional, organism-based; conditions: time 15.0 day
# RAW264.7 [24] = test: Antiarthritic activity against LPS-induced mouse RAW264.7 cells assessed as downregulation of TNF-alpha mRNA expression at 1 uM preincubated with compound for 24 hrs followed by LPS-induction and measured after 24 hrs by RT-PCR analysis; format: functional, cell-based; conditions: time 48.0 hrs
# Mus musculus [25] = test: Antiarthritic activity against collagen-induced rheumatoid arthritis mouse model assessed as reduction in paw swelling at 100 mg/kg administered for 15 days and measured on day 28; format: functional, organism-based; conditions: time 28.0 day
# RAW264.7 [26] = test: Antiarthritic activity against LPS-induced mouse RAW264.7 cells assessed as downregulation of NF-kappaB mRNA expression at 1 uM preincubated with compound for 24 hrs followed by LPS-induction and measured after 24 hrs by RT-PCR analysis; format: functional, cell-based; conditions: time 48.0 hrs
# RAW264.7 [27] = test: Antiarthritic activity against LPS-induced mouse RAW264.7 cells assessed as downregulation of STAT3 expression at 1 uM preincubated with compound for 24 hrs followed by LPS-induction and measured after 24 hrs by Western blot analysis; format: functional, cell-based; conditions: time 48.0 hrs
# RAW264.7 [28] = test: Antiarthritic activity against LPS-induced mouse RAW264.7 cells assessed as reduction in TNF-alpha level at 1 uM pretreated with compound for 24 hrs followed by LPS induction and measured after 24 hrs; format: functional, cell-based; conditions: time 48.0 hrs
# RAW264.7 [29] = test: Antiarthritic activity against LPS-induced mouse RAW264.7 cells assessed as downregulation of JAK2 expression at 1 uM preincubated with compound for 24 hrs followed by LPS-induction and measured after 24 hrs by immunofluorescence analysis; format: functional, cell-based; conditions: time 48.0 hrs
# Mus musculus [30] = test: Antiarthritic activity against collagen-induced rheumatoid arthritis mouse model assessed as reduction in TNF-alpha level at 100 mg/kg administered for 15 days by ELISA analysis; format: functional, organism-based; conditions: time 15.0 day
# RAW264.7 [31] = test: Antiarthritic activity against LPS-induced mouse RAW264.7 cells assessed as downregulation of NF-kappaB expression at 1 uM preincubated with compound for 24 hrs followed by LPS-induction and measured after 24 hrs by Western blot analysis; format: functional, cell-based; conditions: time 48.0 hrs
# RAW264.7 [32] = test: Antiproliferative activity against LPS-induced- mouse RAW264.7 cells assessed as decrease in number of cells at 1 uM pretreated with compound for 24 hrs followed by LPS induction and measured after 24 hrs; format: functional, cell-based; conditions: time 48.0 hrs
# T1 sequence (O00206 whole entry): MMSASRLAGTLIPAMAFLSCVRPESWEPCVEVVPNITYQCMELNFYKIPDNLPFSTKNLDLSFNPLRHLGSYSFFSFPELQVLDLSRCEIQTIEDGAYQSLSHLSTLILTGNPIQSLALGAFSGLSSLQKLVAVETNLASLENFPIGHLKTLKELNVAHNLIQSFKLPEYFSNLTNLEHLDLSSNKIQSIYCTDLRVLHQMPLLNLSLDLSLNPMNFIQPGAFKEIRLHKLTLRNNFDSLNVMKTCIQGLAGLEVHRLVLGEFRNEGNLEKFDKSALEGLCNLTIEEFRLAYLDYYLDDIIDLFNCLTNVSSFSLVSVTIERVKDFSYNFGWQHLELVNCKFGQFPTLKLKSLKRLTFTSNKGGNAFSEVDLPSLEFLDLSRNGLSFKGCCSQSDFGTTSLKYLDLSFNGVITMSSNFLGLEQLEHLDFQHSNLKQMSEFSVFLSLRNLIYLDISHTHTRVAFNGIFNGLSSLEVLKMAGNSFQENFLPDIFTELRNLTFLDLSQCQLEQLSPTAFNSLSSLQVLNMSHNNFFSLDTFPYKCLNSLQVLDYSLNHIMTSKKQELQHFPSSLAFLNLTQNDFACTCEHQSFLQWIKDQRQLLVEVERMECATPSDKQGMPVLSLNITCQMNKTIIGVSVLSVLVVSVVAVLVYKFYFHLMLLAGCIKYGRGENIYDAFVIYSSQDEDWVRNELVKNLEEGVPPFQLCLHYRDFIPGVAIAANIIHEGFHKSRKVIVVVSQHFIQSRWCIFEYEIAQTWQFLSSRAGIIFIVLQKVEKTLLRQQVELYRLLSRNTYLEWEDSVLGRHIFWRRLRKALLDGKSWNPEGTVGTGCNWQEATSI
compound,measurement,setting,value
CC(=O)CC(=O)C1CC(N2C(=O)c3ccccc3C2=O)CCC1=O (stereo not drawn),IC50,RAW264.7 [1],2660 nM
same,IC50,[2],5960 nM
CC(=O)CC(=O)C1CC(NC(=O)OC(C)(C)C)CCC1=O (stereo not drawn),IC50,RAW264.7 [1],2670 nM
same,IC50,[2],5110 nM
CC(=O)CC(=O)C1CC(C2=CCCCC2)CCC1=O (stereo not drawn),IC50,RAW264.7 [1],2830 nM
same,IC50,[2],5430 nM
CC(=O)CC(=O)C1CC(NC(C)=O)CCC1=O (stereo not drawn),IC50,RAW264.7 [1],1330 nM
same,Activity,RAW264.7 [3],365.2 pg/L
same,IC50,[2],2610 nM
same,IC50,Toll-like receptor 4 [4],1210 nM
same,Activity,RAW264.7 [5],158.9 pg/L
same,Activity,RAW264.7 [6],407.2 pg/L
CC(=O)CC(=O)C1CCCCC1=O (stereo not drawn),IC50,RAW264.7 [1],3110 nM
same,IC50,[2],4450 nM
CCCCCC1CCC(=O)C(C(=O)CC(C)=O)C1 (stereo not drawn),IC50,RAW264.7 [1],2450 nM
same,IC50,[2],5080 nM
CC(=O)CC(=O)C1CC(O)CCC1=O (stereo not drawn),Activity,RAW264.7 [7],Active
same,Activity,Mus musculus [8],Active
same,Activity,RAW264.7 [9],Active
same,IC50,RAW264.7 [1],730 nM
same,Activity,RAW264.7 [3],151.5 pg/L
same,Activity,RAW264.7 [10],Active
same,Activity,RAW264.7 [11],Active
same,Activity,RAW264.7 [12],Active
same,Activity,RAW264.7 [13],Active
same,Activity,RAW264.7 [14],Active
same,Activity,RAW264.7 [15],Active
same,IC50,[2],1210 nM
same,Activity,RAW264.7 [16],Active
same,Activity,RAW264.7 [17],Active
same,IC50,Toll-like receptor 4 [4],430 nM
same,Activity,RAW264.7 [18],Active
same,Activity,RAW264.7 [19],Active
same,Activity,RAW264.7 [20],Active
same,Ratio IC50,Toll-like receptor 4 [21],2.4
same,Activity,Mus musculus [22],Active
same,Activity,Mus musculus [23],Active
same,Activity,RAW264.7 [24],Active
same,Activity,Mus musculus [25],Active
same,Activity,RAW264.7 [26],Active
same,Activity,RAW264.7 [5],90.2 pg/L
same,Activity,RAW264.7 [27],Active
same,Activity,RAW264.7 [28],Active
same,Activity,RAW264.7 [6],258.3 pg/L
same,Activity,RAW264.7 [29],Active
same,Activity,Mus musculus [30],Active
same,Activity,RAW264.7 [31],Active
same,Activity,RAW264.7 [32],Active
CCC(C)(C)C1CCC(=O)C(C(=O)CC(C)=O)C1 (stereo not drawn),IC50,RAW264.7 [1],3900 nM
same,IC50,[2],10300 nM
CN(Cc1cnc2nc(N)nc(N)c2n1)c1ccc(C(=O)N[C@@H](CCC(=O)O)C(=O)O)cc1 [METHOTREXATE],Activity,RAW264.7 [7],Active
same,Activity,RAW264.7 [9],inactive
same,IC50,RAW264.7 [1],1230 nM
same,Activity,RAW264.7 [3],235.3 pg/L
same,Activity,RAW264.7 [10],Active
same,Activity,RAW264.7 [12],Active
same,Activity,RAW264.7 [13],inactive
same,Activity,RAW264.7 [14],Active
same,Activity,RAW264.7 [15],Active
same,IC50,[2],2330 nM
same,Activity,RAW264.7 [16],Active
same,Activity,RAW264.7 [17],Active
same,Activity,RAW264.7 [18],inactive
same,Activity,RAW264.7 [19],Active
same,Activity,RAW264.7 [20],Active
same,Activity,RAW264.7 [24],Active
same,Activity,RAW264.7 [26],Active
same,Activity,RAW264.7 [5],115.3 pg/L
same,Activity,RAW264.7 [28],Active
same,Activity,RAW264.7 [6],334.5 pg/L
same,Activity,RAW264.7 [29],inactive
same,Activity,RAW264.7 [31],Active
same,Activity,RAW264.7 [32],Active
COC(=O)C1CCC(=O)C(C(=O)CC(C)=O)C1 (stereo not drawn),IC50,RAW264.7 [1],7400 nM
same,IC50,[2],16600 nM
CC(=O)CC(=O)C1CC(C)CCC1=O (stereo not drawn),IC50,RAW264.7 [1],1690 nM
same,Activity,RAW264.7 [3],399.1 pg/L
same,IC50,[2],3320 nM
same,IC50,Toll-like receptor 4 [4],1150 nM
same,Activity,RAW264.7 [5],176.6 pg/L
same,Activity,RAW264.7 [6],457.8 pg/L
CC(=O)CC(=O)C1CC(C(C)(C)C)CCC1=O (stereo not drawn),IC50,RAW264.7 [1],2930 nM
same,IC50,[2],6430 nM
